Reference: US7208528B1, “Polyamine analogues as therapeutic and diagnostic agents” (MediQuest Therapeutics, Inc., priority 1997, dated 2007)

Legend:
[1] = test system: polyamine transporter (PATr); experiment: Polyamine transport (PAT) inhibition assay, 3H-spermidine uptake into MDA-MB-231 cells; type: cell-based, human; details: for Ki: MDA-MB-231 cells
Description: (§1) The radiometric assay uses radiolabeled polyamines such as putrescine, spermidine or spermine, but, due to the low signal, large numbers of adherent or non-adherent cells are required. Additional care is required with spermine due to its nonspecific adsorption to cells and plastics. Cells are mixed with the test compounds and the radiolabeled polyamine to initiate the assay. The cells are incubated for 1–60 minutes, depending on cell type. The assay is terminated by removal of the medium and cooling the plates to 4° C. The cells are then washed with cold medium three times, dissolved in 0.1% sodium dodecyl sulfate and the radioactivity in solution is then determined by scintillation counting. This assay is difficult to scale up to a high throughput procedure due to the low signal from the radiolabel and the handling requirements inherent in procedures with radioactivity.
Therefore, the growth assay and a kinetic transport assay have been used to validate transport inhibition.
The polyamine analogues and derivatives of the invention may be evaluated for their ability to inhibit the uptake of spermidine into MDA cells in culture. Joro spider toxin JSTx-3 is available from Calbiochem; 1-Naphthylacetylspermine is available from RBI. Deoxyspergualin was a generous gift from Paul Gladstone.
300 nM 1202 was the maximum concentration tested in initial rate transport assays.

[2] = target: spermidine/spermine acetyltransferase (SSAT) (Homo sapiens, UniProt P21673); experiment: Spermidine/spermine acetyltransferase enzymatic activity, 14C-acetyl CoA incorporation; type: biochemical; details: 1 mM spermidine, 1 mM 14C-acetyl CoA, pH 7.8
spermidine/spermine acetyltransferase (SSAT), sequence (P21673 whole entry, species assumed): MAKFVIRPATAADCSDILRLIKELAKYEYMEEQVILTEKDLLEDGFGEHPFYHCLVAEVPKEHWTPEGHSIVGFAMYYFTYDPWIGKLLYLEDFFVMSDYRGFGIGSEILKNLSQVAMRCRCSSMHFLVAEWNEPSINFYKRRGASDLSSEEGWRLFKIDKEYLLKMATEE
Description: A study was conducted to determine whether the compositions of the present invention, designed as PAT inhibitors, had other activities on the PA system. Specifically, the ability of DACS to inhibit an enzyme involved in PA recycling was evaluated. The method used was as described in Casero, R. A. et al., Biochem. J. 270:615–620 (1990) hereby incorporated by reference in its entirety. This assay measures the incorporation of ^14C-labeled acetyl CoA into spermidine to form acetylspermidine. Varying concentrations of DACS were added to a reaction mixture containing HEPES buffer, pH 7.8, 1 mM spermidine, and 1 mM ^14C-Acetyl CoA. The product is isolated by binding to phosphocellulose filter paper and the extent of reaction is determined by scintillation counting.

[3] = test system: T-cell acute lymphoblastic leukemias (ALL), glioblastomas, prostate, and colon cell lines; experiment: In vitro test in combination with ODC inhibitors against several human cancer cell lines; type: cell-based
Description: DACS was tested in vitro in combination with ODC inhibitors against several human cancer cell lines. These include T-cell acute lymphoblastic leukemias (ALL), glioblastomas, prostate, and colon cell lines.

[4] = test system: MDA-MB-231 cells; experiment: Growth assay of MDA-MB-231 cells with ODC inhibitor (DFMO) and 1 μM spermidine; details: for IC50: read-out: IC50 for growth in combination with ODC inhibitor (DFMO), 230 μM DFMO; for IC50 / IC50 with DFMO, result in words: 1 μM spermidine; for R, ratio of IC50 in the absence of DFMO over IC50 in the presence of DFMO: MDA growth assay; for concentration added to culture media at which growth inhibition due to 1202 and DFMO begins to reverse: cells treated with 1202 and DFMO
Description: The estrogen insensitive human breast carcinoma MDA-MB-231 cell line as the primary cell line in the screen. […] In order to optimize the screen for polyamine transport inhibition, 1.0 μM spermidine was added to media to reverse the effects of ODC inhibitors. The assay was also performed over seven days because this allows for the greatest dynamic range in cell growth due to the mechanism of ODC inhibitors. Cells need to divide several times before the intracellular level of polyamines begin to decrease to growth inhibitory levels.
Compounds were tested for their ability to inhibit cell growth in the presence of 1 μM spermidine and 230 μM ODC inhibitor for the MDA-MB-231 cells or 1 mM ODC inhibitor for the PC3 cells.
In our six day growth assays, 1202 was tested at increasing concentrations with the optimal concentration of DFMO.

[5] = test system: polyamine transporter (PATr); experiment: Radiometric PAT assay in A172 glioblastoma cells; type: cell-based; details: A172 cell line
Description: as §1

[6] = test system: MDA breast carcinoma cells; experiment: Rescue from DFMO-induced growth inhibition of MDA cells without added polyamines, six day growth assay; type: cell-based, human; details: absence of polyamines
Description: An additional series of spermine amides were evaluated to extend the structure-activity relationship around this polyamine transport target.
Growth assays were done over a six day period in order to allow for polyamine depletion within cells. When synthesis of polyamines is inhibited, cells compensate by increasing transport of extracellular polyamines into the cell. Over the time course of the assay, polyamines in the culture media may be depleted resulting in growth inhibition.

[7] = Solubility in water; type: physicochemical; details: pH 7.0
[8] = test system: cancer cells; details: cited from earlier work

Compound | IC50 [4] [nM] | Ki [1] [nM] | also measured
CN(C)c1cccc2c(S(=O)(=O)NCCCCCC(=O)NCCCNCCCCNCCCN)cccc12 [Compound 4, N^1-[(N^6-dansyl)-6-aminocaproyl]spermine] | 600 |  | affinity higher than the compound reported by Felschow et al. [1]: 100 times; increase in binding to the PATr by six carbon linker ([1]; versus compound without linker): 10 fold; inhibition of SSAT enzymatic activity [2]: inhibited; effect against tumor cell lines in vitro [3]: effective; concentration at which compound alone becomes growth inhibitory ([4]; alone, without ODC inhibitor): 300 µM; reduction of cell growth ([4]; with ODC inhibitor in the presence of polyamines, day 3): 69%
NCCCNCCCCNCCCNC(=O)CCCCCNS(=O)(=O)c1ccc(CNC(=O)c2ccc(Cl)cc2)s1 [Compound 5, N^1-[(N^6-5-(4-chlorobenzamidomethyl)-thiophene-2-sulfonyl)-6-aminocaproyl]spermine] |  |  | R, ratio of IC50 in the absence of DFMO over IC50 in the presence of DFMO [4]: 210
NCCCNCCCCNCCCNC(=O)CCCCCNS(=O)(=O)c1ccc2oc3ccccc3c2c1 [Compound 6] |  |  | R, ratio of IC50 in the absence of DFMO over IC50 in the presence of DFMO [4]: 220
CN(C)CCCN1c2ccccc2CCc2ccccc21 [Compound 165, imipramine, reference compound] |  |  | type of PAT inhibition ([1]; A172 and MDA cells): non-competitive; inhibition of the PAT assay ([1]; MDA cell line): inhibited; inhibition of the PAT assay [5]: inhibited
NCCCNCCCCNCCCNC(=O)Cc1cccc2ccccc12 [Compound 1022, 1-Naphthylacetylspermine, reference compound] | 8300 | 230 | 
N=C(N)NCCCCCCC(=O)NC(O)C(=O)NCCCCNCCCN (centres unmarked) [Compound 1085, deoxyspergualin, reference compound] |  | 81 | 
NCCCCCC(=O)NCCCNCCCCNCCCN [Compound 1094, N^1-[6-aminocaproylspermine]] |  | 69 | rescue of cells from growth inhibitory effects of DFMO [6]: able to rescue
NCCCNCCCCNCCCNC(=O)C(N)Cc1c[nH]c2ccccc12 [Compound 1095, N^1-Spermine-L-tryptophanyl amide] | 15000 | 162 | 
CC(=O)NCCCNCCCCNCCCN [Compound 1110, N^1-acetylspermine, reference compound] |  | 162 | greater affinity for the transport system than spermidine ([1]; Ki versus Km of spermidine): 3 fold
NCCCNCCCCNCCC(=O)NCCCCCNC(=O)[C@H](CC(N)=O)NC(=O)Cc1ccc(O)cc1O [Compound 1111, reference compound] |  | 190 | 
NCCCNCCCCNCCCNC(=O)CN [Compound 1125, N^1-Spermine-glycinyl amide] |  | 87 | rescue of cells from growth inhibitory effects of DFMO [6]: able to rescue; IC50 with DFMO, result in words [4]: failed to give effective IC50 values
NCCCNCCCCNCCCNC(=O)C(N)CC(N)=O [Compound 1131, N^1-Spermine-L-asparaginyl amide] |  | 32 | 
NCCCNCCCCNCCCNC(=O)C(N)CCC(N)=O [Compound 1154, N^1-Spermine-L-glutaminyl amide] |  | 47 | IC50 with DFMO, result in words [4]: failed to give effective IC50 values
CC(C)C(N)C(=O)NCCCNCCCCNCCCN [Compound 1157, N^1-Spermine-L-valinyl amide] | 16000 | 84 | rescue of cells from growth inhibitory effects of DFMO [6]: not able to rescue
NCCCNCCCCNCCCNC(=O)[C@@H]1CCCN1 [Compound 1159, N^1-Spermine-L-prolinyl amide] | 5000 | 38 | rescue of cells from growth inhibitory effects of DFMO [6]: able to rescue
CC(C)(C)OC(=O)NCCCNCCCCNCCCN [Compound 1163, N^1-boc-spermine] |  | 83 | 
CSCCC(N)C(=O)NCCCNCCCCNCCCN [Compound 1164, N^1-Spermine-L-methionyl amide] |  | 34 | IC50 with DFMO, result in words [4]: failed to give effective IC50 values
NCCCNCCCCNCCCNC(=O)C(N)Cc1ccc(O)cc1 [Compound 1173, N^1-Spermine-L-tyrosinyl amide] |  | 77 | 
NCCCNCCCCNCCCNC(=O)CCN [Compound 1177, N^1-Spermine-β-alanyl amide] |  | 71 | IC50 with DFMO, result in words [4]: failed to give effective IC50 values

Compound | IC50 [4] [nM] | Ki [1] [nM] | also measured
CC(N)C(=O)NCCCNCCCCNCCCN [Compound 1178, N^1-Spermine-L-alanyl amide] |  | 244 | 
NCCCNCCCCNCCCNC(=O)C(N)CO [Compound 1187, N^1-Spermine-L-serinyl amide] | 26000 | 45 | 
CC(C)(C)C(N)C(=O)NCCCNCCCCNCCCN [Compound 1194, N^1-Spermine-L-^tbutylglycinyl amide] | 11000 | 212 | 
CC(C)C(N)C(=O)NCCCNCCCCNCCCN [Compound 1196, N^1-Spermine-D-valinyl amide] | 9000 | 48 | 
NCCCCC(N)C(=O)NCCCNCCCCNCCCN [Compound 1202, N^1-Spermine-L-lysinyl amide] |  |  | solubility [7]: ≥ 100000 µM
CC(O)C(N)C(=O)NCCCNCCCCNCCCN [Compound 1207, N^1-Spermine-L-threoninyl amide] | 6000 | 130 | 
NCCCNCCCCNCCCNC(=O)CC12CC3CC(CC(C3)C1)C2 [Compound 1212, N^1-Spermine 2-(1-adamantyl)acetamide] | 9000 |  | 
CC(C)(N)C(=O)NCCCNCCCCNCCCN [Compound 1220, N^1-Spermine-α-aminoisobutyryl amide] | 8000 | 160 | 
NCCCNCCCCNCCCNC(=O)C(N)CCCN [Compound 1224, N^1-Spermine-L-ornithyl amide] | 3000 | 47 | rescue of cells from growth inhibitory effects of DFMO [6]: not able to rescue
NCCCNCCCCNCCCNC(=O)C(N)CC1CCCCC1 [Compound 1227, N^1-Spermine-L-cyclohexanealanyl amide] |  | 241 | 
CCC(C)C(N)C(=O)NCCCNCCCCNCCCN [Compound 1228, N^1-Spermine-L-isoleucinyl amide] | 9000 | 124 | 
CC(C)CC(N)C(=O)NCCCNCCCCNCCCN [Compound 1230, N^1-Spermine-L-leucinyl amide] |  | 32 | IC50 with DFMO, result in words [4]: failed to give effective IC50 values
NCCCNCCCCNCCCNC(=O)C12CC3CC(CC(C3)C1)C2 [Compound 1235, N^1-spermine 1-adamantylamide] |  | 1140 | 
NCCCNCCCCNCCCNC(=O)C(N)Cc1c[nH]c2ccccc12 [Compound 1309, N^1-Spermine-D-tryptophanyl amide] |  | 26 | 
NCCCCN [PUT, putrescine, reference compound] |  |  | concentration added to culture media at which growth inhibition due to 1202 and DFMO begins to reverse [4]: greater than 10 μM
NCCCNCCCCNCCCN [SPM, spermine, reference compound] |  |  | concentration added to culture media at which growth inhibition due to 1202 and DFMO begins to reverse [4]: 1 µM
NCCCCN(CCCN)CCCNC(=O)CCCc1ccc(N(CCCl)CCCl)cc1 [chlorambucil-spermidine conjugate] |  |  | increase in cytotoxicity compared to chlorambucil alone [8]: ≤ 225 fold
NCCCCNCCCN [spermidine, reference compound] |  |  | Km ([1]; MDA cells, read-out: Km for the transport system): 0.52 µM; concentration added to culture media at which growth inhibition due to 1202 and DFMO begins to reverse [4]: 1 µM
